Measurements reported in the METLIN SMRT retention time set (Domingo-Almenara et al. 2019).

Test: gradient 5% acetonitrile 3 min, to 50% in 2 min, to 85% in 15 min, held 3 min, 100 µL/min
Settings: column: Zorbax Extend-C18 2.1 x 50 mm; eluents: water / acetonitrile, 0.1% formic acid
Summary of the method: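 Values are retention times taken from adduct peaks that software picked and an analyst inspected. The pure standards were run as mixtures of ~100 molecules on HPLC linked to a quadrupole time-of-flight mass spectrometer, in positive and negative ionization mode. A Zorbax Extend-C18 column (2.1 × 50 mm, 1.8 μm) was used at 100 μL/min with water and acetonitrile, each including 0.1% formic acid.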

RP-LC retention time [s] | Structure (SMILES)
707 | CC1(C)CC(=O)c2cn(-c3ccc(F)cc3)c(=O)c(C(=O)Nc3cccnc3)c2C1
1110 | COC(=O)c1ccc2c(=O)n(CCc3ccccc3)c(N3CCSC3)nc2c1
874 | COc1ccc(CCc2nc3nccc(-c4ccc5c(c4)OCCCO5)n3n2)cc1OC
874 | COc1ccc(-c2noc(-c3nn(-c4cccc(F)c4)ccc3=O)n2)cc1
1230 | CCN1C(=O)COc2ccc(-c3noc(-c4ccc(C)cc4)n3)cc21
807 | CN(C)c1ccc(CN2CCc3nc(N4CCN(c5ccccc5F)CC4)ncc3C2)cc1
670 | Cc1nc2ccn(Cc3cccs3)c(=O)c2cc1C(=O)NCC1CCCO1 (centres undefined)
620 | CCCc1cc(N2CCN(C(=O)c3ccc(F)cc3)CC2)nc2nncn12
930 | COc1ccc(-c2noc(Cn3cnc4c(cnn4-c4ccc(F)cc4)c3=O)n2)cc1OC
1120 | COc1ccc(Cl)cc1NC(=O)N1CCCC1c1nc(-c2ccc(F)cc2F)no1 (centres undefined)
1140 | COc1ccc2sc(OC3CCN(C(=O)c4cnn(-c5ccccc5)n4)CC3)nc2c1
746 | COc1ccc(OC)c(NC(=O)N2CCC(N3CCN(Cc4ccccc4)C(=O)C3=O)CC2)c1
620 | O=C(c1ccc2c(c1)OCO2)N1CCN(c2nc(CN3CCCCC3)cs2)CC1
1000 | COc1ccccc1NC(=O)CN1c2ccc(F)cc2-c2ccccc2S1(=O)=O
780 | COc1ccc(-c2cc3c(=O)n(CC(=O)Nc4ccc(C)c(F)c4)ccn3n2)cc1OC
540 | COc1ccccc1NC(=O)N1CCc2[nH]cnc2C1c1ccncc1 (centres undefined)
865 | O=C1CC(c2nc(-c3ccccc3F)no2)CN1c1ccc2c(c1)OCO2 (centres undefined)
919 | Cc1cccc(C)c1NC(=O)C1CCN(S(C)(=O)=O)c2cc(Cl)ccc2O1 (centres undefined)
1130 | CCOc1cccc(-c2noc(Cn3nc(-c4ccc5c(c4)OCO5)ccc3=O)n2)c1
919 | CCS(=O)(=O)Nc1ccc(-c2noc(COc3ccc(OC)cc3)n2)cc1
596 | OCCNCc1ccc(-c2ccccc2F)o1
792 | O=C(Nc1cccc(-c2ccc(N3CCOCC3)nn2)c1)Nc1ccc2c(c1)CCC2

RP-LC retention time [s] | Structure (SMILES)
634 | Cc1cc(C(=O)N2CCOCC2)nn1CC(=O)NCc1ccc2c(c1)OCO2
672 | NS(=O)(=O)c1ccc(CCNC(=O)c2ccc3c(c2)NC(=O)C2CCCCN32)cc1 (centres undefined)
755 | O=C(Cn1cc(-c2nnco2)c2ccccc21)NCc1ccccc1F
638 | CCc1nncn1C1CCN(C(=O)Nc2ccc(Cl)cc2F)C1 (centres undefined)
943 | COc1cc(OC)c(NC(=O)N(C)CCc2noc(-c3ccc(F)cc3)n2)cc1Cl
831 | Cc1ccc(NC(=O)N2CCC3(CC2)NC(=O)c2ccccc2O3)cc1Cl
863 | COc1ccc(CNC(=O)c2ccc3c(c2)N(C)C(=O)c2ccccc2O3)cc1
860 | CCOc1ccc(-n2ccn3cc(-c4ccc(F)cc4)nc3c2=O)cc1
574 | Cc1cc(=O)oc2cc(OCC(O)CN3CCN(c4ccccn4)CC3)ccc12 (centres undefined)
871 | Cc1cc(OCC(=O)NCc2ccccc2Br)nc(N2CCN(c3ccccc3)CC2)n1
609 | Cc1cc(N2CCN(C)CC2)nc2ccc(NC(=O)Nc3ccccc3Br)cc12
896 | COc1ccc(C2CC(=O)N(c3cccc(F)c3)C(=O)C2)cc1
703 | Cc1nc2cccnc2n1CC1CCCN(S(=O)(=O)c2cc(F)ccc2F)C1 (centres undefined)
1210 | Cc1cccc(-c2nnc(-c3cc(S(=O)(=O)N4CCCCC4)ccc3Cl)o2)c1
751 | CCCNC(=O)N1CCc2nc(-c3ccccc3)ncc2C1
856 | O=S(=O)(Nc1cccc(F)c1)c1ccc(-c2nnc(C3CCC3)o2)o1
717 | Cc1ccc(-c2nc3ccccn3c2Nc2ccc(F)cc2)cc1
754 | Cc1ccccc1NC(=O)N1CCC(n2cnc3c(C)cccc3c2=O)CC1
1160 | COC(=O)c1cnc(N2CCN(c3ccccc3)CC2)c2ccccc12
667 | CCc1cccc(NC(=O)N2CCC(n3cnnc3C3CC3)C2)c1 (centres undefined)
1100 | Cc1ccc(N2CC(c3noc(-c4ccc(C)c(F)c4)n3)CC2=O)cc1 (centres undefined)
794 | O=C(NCCc1csc(-c2ccccc2)n1)C1CCN(C(=O)Cc2cccs2)CC1

More lines, now with the values behind:

Structure (SMILES) | RP-LC retention time [s]
CN(CCCNC(=O)C1CCc2nc(N3CCCCC3)ncc2C1)c1ccccc1 (centres undefined) | 793
Cc1csc(-c2cc(S(=O)(=O)NC(C)C)c(C)n2C)n1 | 852
CCOc1ccc(NC(=O)N2CCN(c3cc(C)nc(N4CCOCC4)n3)CC2)cc1 | 624
CCn1cc(CCN2CCN(C(=O)c3ccc(Br)cc3)CC2)c2cccnc21 | 629
CC(C)CC(=O)Nc1ccc2c(c1)nc(CN1CCN(C(=O)c3ccco3)CC1)n2C | 620
Cn1nc(C(=O)N2CCCC(C(=O)N3CCCC3)C2)c2c1CCN(C(=O)c1ccccc1Cl)C2 (centres undefined) | 662
CC1C(=O)NCCN1C(=O)c1cc(Cl)ccc1Cl (centres undefined) | 612
Cc1ccc(CNC(=O)C2CCN(c3ccc(SCc4ccccc4)nn3)CC2)cc1 | 821
O=C(CN1C(=O)C2CCCCN2c2ccc(S(=O)(=O)N3CCCC3)cc21)NCc1ccccc1 (centres undefined) | 921
COCC(=O)Nc1cnc(-c2cccnc2)nc1 | 554
Cn1cc(C(=O)NCCc2cccs2)c(S(=O)(=O)N2CCSCC2)n1 | 842
COc1nn(C)cc1C(=O)Nc1ccc(-c2cn3ccsc3n2)cc1 | 575
O=C(Nc1cccc(C(F)(F)F)c1)N1CCC(N2C[C@H]3C[C@H](C2)[C@H]2CCCC(=O)N2C3)CC1 | 653
CC(C)NC(=O)C1CCCN(C(=O)Nc2ccc(NC(=O)Nc3ccc(F)cc3)cc2)C1 (centres undefined) | 714
O=C(c1ccc(-c2cccs2)nc1)N1CCCCCC1 | 878
CCC1(C(=O)NCc2ccc(C)cc2)CCCCC(=O)N1 (centres undefined) | 707
O=C(CCc1csc(NC(=O)Nc2ccccc2)n1)Nc1nc2ccccc2s1 | 864
Cc1csc(-c2cc(S(=O)(=O)N3CCN(CC(C)C)CC3)cn2CC(=O)N2CCCCC2)n1 | 724
CCc1nc2c(=O)n(CC(=O)N(CC)Cc3ccccc3)nc(C)c2s1 | 740
CCOc1ccccc1CNC(=O)c1c(C)sc2ccn(CC)c(=O)c12 | 893
CC(C)c1ccc(OCC(=O)Oc2ccc3c(c2)ncn3C)cc1 | 662
COC(=O)c1c(NCC(C)O)c2cc(F)ccc2[nH]c1=O (centres undefined) | 596
Cc1noc(CNC(=O)COc2cccc3c2OC(C)(C)C3)n1 | 724

Structure (SMILES) | RP-LC retention time [s]
CCc1ccc(NC(=O)C2CCN(c3c(C(=O)N(CC)CC)cnc4snc(C)c34)CC2)cc1 | 687
O=C(NC1CCCCCC1)C1CCCN(c2ccc(=O)n(-c3cccc(Cl)c3)n2)C1 (centres undefined) | 966
CNC(=O)C1CN(S(=O)(=O)c2cccs2)CC12CCCCC2 (centres undefined) | 697
CC(C(=O)NCCN(C)C)C1CCN(C(=O)c2cc3cc(Cl)ccc3[nH]2)CC1 (centres undefined) | 649
CC(NC(=O)c1ccc(Oc2nccnc2N2CCSCC2)cc1)c1ccc(F)cc1 (centres undefined) | 965
O=C(CCCN1C(=O)C(c2ccccc2)Oc2cccnc21)NCCCN1CCCCC1 (centres undefined) | 573
CCOC(=O)N1CCN(C(=O)CSc2nnc3n2CCN3c2ccc(OC)cc2)CC1 | 623
COc1ccc(CNC(=O)C2CCCN(c3nnc4ccc(C(F)(F)F)cn34)C2)cc1 (centres undefined) | 783
Cc1ccc2c(c1)N(S(C)(=O)=O)CCC(C(=O)NCCC1=CCCCC1)O2 (centres undefined) | 993
Cc1ccc(C(=O)NCC2CCCO2)cc1 (centres undefined) | 642
COC(=O)c1ncn2c1C(=O)N(Cc1ccccc1)C(C)(C(=O)NCc1ccc(C)cc1)C2 (centres undefined) | 734
C=C1C(=O)[C@]23[C@H](O)[C@H]1CC[C@H]2[C@@]12CO[C@]3(O)[C@@H](O)[C@@H]1C(C)(C)CC[C@@H]2O | 794
Cc1c(C2CCN(C(=O)c3ccco3)CC2)noc1N | 620
COc1cc(Cl)c(NC(=O)C2CCN(C(=O)c3cc(-c4ccncc4)n[nH]3)CC2)c(OC)c1 | 629
CC(C)N(C(=O)Cn1c(CNC(=O)c2ccco2)nc2ccccc21)c1ccccc1 | 698
O=C(c1ccc(OCC2CCCN(C(=O)c3cccs3)C2)cc1)N1CCOCC1 (centres undefined) | 620
CCC(C)NC(=O)Cn1nc2nc(Nc3ccc(F)cc3)ccn2c1=O (centres undefined) | 684
COc1cccc(-c2csc(Nc3ccc(Br)cn3)n2)c1 | 1170
CCc1noc(NC(C)=O)c1-c1ccc(OC)c(S(=O)(=O)NC2CCCCC2)c1 | 804
Cc1nc(-c2cc(S(=O)(=O)NCc3cc(F)cc(F)c3)c(C)s2)cs1 | 994
CC1CCN(C2=NCCN2C(=O)c2ccc(F)cc2)CC1 | 661
CC1CCCN(S(=O)(=O)c2cc(C(=O)Nc3ccc(F)c(Cl)c3)n(C)c2)C1 (centres undefined) | 1170
